In PubChem BioAssay AID1963971 (Molecular Pharmacology Branch, DTP, NCI, 2024):

System: 953936-095-R-J2-PDC spheroids with HUVEC/MSC, viability
Test: Anticancer human tumor 953936-095-R-J2-PDC patient-derived cervical squamous cell carcinoma cell line growth inhibition [PI3K]
Conditions: for IC50: curve of first compound; for viability, T/C: stronger effect = lower value
Text: Combinatorial screen of targeted agents with the PI3K inhibitors inavolisib, alpelisib, duvelisib, and copanlisib in multi-cell type tumor spheroids
A high-throughput screen of multi-cell type tumor spheroids was designed to identify active combinations of targeted small molecules and PI3K pathway inhibitors. Complex spheroids include a stromal component modeled by human endothelial cells (HUVEC) and fibroblasts modeled by human mesenchymal stem cells (MSCs). The concentration ranges selected for each drug and investigational agent were based upon clinically achievable concentrations if the clinical Cmax of the agent was known.
Compounds. The drugs and investigational agents: inavolisib (NSC800729), alpelisib (NSC765974), duvelisib (NSC772469), copanlisib (NSC816437), ipatasertib (NSC767898), afuresertib (NSC778305), talazoparib (NSC767125), sapanisertib (NSC764658), selumetinib (NSC741078), tovorafenib (DAY101, NSC766906), vemurafenib (NSC761431), ravoxertinib (NSC781343), sotorasib (NSC818433), MRTX1133 (NSC 836407), abemaciclib (NSC 768073), palbociclib (NSC758247), venetoclax (NSC 766270), SY5609 (NSC837396), enzalutamide (NSC755605), and darolutamide (NSC825331), were obtained from the National Cancer Institute (NCI) Developmental Therapeutics Program Chemical Repository. The FDA-approved anticancer drug set is available from the NCI Developmental Therapeutics Program. […] The stock solutions were prepared in dimethyl sulfoxide (DMSO, Sigma-Aldrich, St. Louis, MO, cat. D2650) at 800-fold the tested concentration and stored at -70 degrees C prior to their use. All drugs and investigational agents were tested over a range starting from a high concentration at or near the clinical Cmax and decreasing in half-log increments. If the clinical Cmax for an agent had not been determined, the highest concentration tested was 10 microM.
Cell Culture. All cells were maintained in an incubator at 37 degrees C and 5% CO2 with 95% humidity. The PDC lines were cultured according to standard operating procedures established by the NCI PDMR (https://pdmr.cancer.gov/sops/default.htm). All PDCs were thawed and cultured in Matrigel-coated flasks prepared with a working solution of 1X Ham's F-12 nutrient mix, without supplementation (Invitrogen, Waltham, MA, cat. 11765054), 100 U/mL penicillin-streptomycin (Invitrogen, cat. 15140122), and 2.5% Matrigel (Corning Inc., Corning, NY, cat. 354248) for the first three passages. The 354836-022-R-J1-PDC, 475296-252-R-J1-PDC, and 997726-040-R-J2-PDC lines were cultured in 6A media, which includes advanced DMEM/F-12 (Thermo Fisher Scientific, cat. 12634028), 10 mM HEPES (Thermo Fisher Scientific, cat. 15630080), 1X GlutaMAX supplement (Thermo Fisher Scientific, cat. 35050061), 0.1 mg/mL primocin (InvivoGen, San Diego, CA, cat. ant-pm-2), 10% defined fetal bovine serum, heat inactivated (HyClone Laboratories Inc., Logan, UT, cat. SH30070.03HI), 50% L-WRN conditioned media (ATCC, cat. CRL-3276), 1.25 mM N-Acetyl-L-cysteine (Sigma-Aldrich, cat. A9165), 10 mM nicotinamide (Sigma-Aldrich, cat. N0636), 1X B-27 supplement (Thermo Fisher Scientific, cat. 17504044), 1X N-2 supplement (Thermo Fisher Scientific, cat. 17502048), and 10 microM Y-27632 dihydrochloride (Tocris Bioscience, Bristol, United Kingdom, cat. 1254). The 624824-186-R-J2-PDC line was cultured in 6C/Colon 1B media, which includes all 6A media components plus 50 ng/mL human EGF recombinant protein (Thermo Fisher Scientific, cat. PHG0311). […]

[1] = second compound 0.00316 µM, first compound 0.0316 µM
[2] = second compound 0.00316 µM, first compound 0.1 µM
[3] = second compound 0.00316 µM, first compound 0.316 µM
[4] = second compound 0.00316 µM, first compound 1 µM
[5] = second compound 0.00316 µM, first compound 3.16 µM
[6] = second compound 0.00316 µM, first compound 10 µM
[7] = second compound 0.01 µM, first compound 0.0316 µM
[8] = second compound 0.01 µM, first compound 0.1 µM
[9] = second compound 0.01 µM, first compound 0.316 µM
[10] = second compound 0.01 µM, first compound 1 µM
[11] = second compound 0.01 µM, first compound 3.16 µM
[12] = second compound 0.01 µM, first compound 10 µM
[13] = second compound 0.0316 µM, first compound 0.0316 µM
[14] = second compound 0.0316 µM, first compound 0.1 µM
[15] = second compound 0.0316 µM, first compound 0.316 µM
[16] = second compound 0.0316 µM, first compound 1 µM
[17] = second compound 0.0316 µM, first compound 3.16 µM
[18] = second compound 0.0316 µM, first compound 10 µM
[19] = second compound 0.1 µM, first compound 0.0316 µM
[20] = second compound 0.1 µM, first compound 0.1 µM
[21] = second compound 0.1 µM, first compound 0.316 µM
[22] = second compound 0.1 µM, first compound 1 µM
[23] = second compound 0.1 µM, first compound 3.16 µM
[24] = second compound 0.1 µM, first compound 10 µM
[25] = second compound 0.316 µM, first compound 0.0316 µM
[26] = second compound 0.316 µM, first compound 0.1 µM
[27] = second compound 0.316 µM, first compound 0.316 µM
[28] = second compound 0.316 µM, first compound 1 µM
[29] = second compound 0.316 µM, first compound 3.16 µM
[30] = second compound 0.316 µM, first compound 10 µM
[31] = second compound 1 µM, first compound 0.0316 µM
[32] = second compound 1 µM, first compound 0.1 µM
[33] = second compound 1 µM, first compound 0.316 µM
[34] = second compound 1 µM, first compound 1 µM
[35] = second compound 1 µM, first compound 3.16 µM
[36] = second compound 1 µM, first compound 10 µM
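Further: spheroids exposed to compounds for seven days before read-out.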

## Cn1ncc(Cl)c1-c1cc(C(=O)NC(CN)Cc2cccc(F)c2)sc1Cl (centres undefined) + CC(Nc1ccc2c(c1)OCCn1cc(N3C(=O)OCC3C(F)F)nc1-2)C(N)=O
Second compound 0.00316 µM
  IC50: 618 nM
Second compound 0.01 µM
  IC50: 499 nM
Second compound 0.0316 µM
  IC50: 323 nM
Second compound 0.1 µM
  IC50: 181 nM
Second compound 0.316 µM
  IC50: < 31.6 nM
Second compound 1 µM
  IC50: < 31.6 nM
[1]
  viability, T/C: 83.3%
[2]
  viability, T/C: 84.3%
[3]
  viability, T/C: 62.6%
[4]
  viability, T/C: 40.2%
[5]
  viability, T/C: 19.1%
[6]
  viability, T/C: 11%
[7]
  viability, T/C: 90.4%
[8]
  viability, T/C: 87.3%
[9]
  viability, T/C: 58.1%
[10]
  viability, T/C: 35.1%
[11]
  viability, T/C: 17.7%
[12]
  viability, T/C: 12.6%
[13]
  viability, T/C: 78.3%
[14]
  viability, T/C: 71.3%
[15]
  viability, T/C: 49.7%
[16]
  viability, T/C: 27.6%
[17]
  viability, T/C: 15.5%
[18]
  viability, T/C: 9.96%
[19]
  viability, T/C: 66.6%
[20]
  viability, T/C: 61.7%
[21]
  viability, T/C: 38.8%
[22]
  viability, T/C: 25.7%
[23]
  viability, T/C: 13.6%
[24]
  viability, T/C: 10.5%
[25]
  viability, T/C: 36.1%
[26]
  viability, T/C: 37.1%
[27]
  viability, T/C: 28%
[28]
  viability, T/C: 17.1%
[29]
  viability, T/C: 12.9%
[30]
  viability, T/C: 7.57%
[31]
  viability, T/C: 22.1%
[32]
  viability, T/C: 22.5%
[33]
  viability, T/C: 18.8%
[34]
  viability, T/C: 13.8%
[35]
  viability, T/C: 10.4%
[36]
  viability, T/C: 5.59%

## Cn1nccc1Nc1nccc(-c2ccn(C(CO)c3ccc(Cl)c(F)c3)c(=O)c2)n1 (centres undefined) + CC(Nc1ccc2c(c1)OCCn1cc(N3C(=O)OCC3C(F)F)nc1-2)C(N)=O
Second compound 0.00316 µM
  IC50: > 10000 nM
Second compound 0.01 µM
  IC50: > 10000 nM
Second compound 0.0316 µM
  IC50: > 10000 nM
Second compound 0.1 µM
  IC50: 383 nM
Second compound 0.316 µM
  IC50: < 31.6 nM
Second compound 1 µM
  IC50: < 31.6 nM
[1]
  viability, T/C: 86.2%
[2]
  viability, T/C: 87%
[3]
  viability, T/C: 93.8%
[4]
  viability, T/C: 95.1%
[5]
  viability, T/C: 80.4%
[6]
  viability, T/C: 71.7%
[7]
  viability, T/C: 84.4%
[8]
  viability, T/C: 94%
[9]
  viability, T/C: 88.8%
[10]
  viability, T/C: 77.1%
[11]
  viability, T/C: 78.8%
[12]
  viability, T/C: 70%
[13]
  viability, T/C: 75.2%
[14]
  viability, T/C: 68.8%
[15]
  viability, T/C: 70.1%
[16]
  viability, T/C: 72%
[17]
  viability, T/C: 65.1%
[18]
  viability, T/C: 61.9%
[19]
  viability, T/C: 62.1%
[20]
  viability, T/C: 52.7%
[21]
  viability, T/C: 51.3%
[22]
  viability, T/C: 46.5%
[23]
  viability, T/C: 47.8%
[24]
  viability, T/C: 40.1%
[25]
  viability, T/C: 36.3%
[26]
  viability, T/C: 32.8%
[27]
  viability, T/C: 31%
[28]
  viability, T/C: 28.4%
[29]
  viability, T/C: 24%
[30]
  viability, T/C: 19.5%
[31]
  viability, T/C: 21.9%
[32]
  viability, T/C: 20.9%
[33]
  viability, T/C: 18%
[34]
  viability, T/C: 15.1%
[35]
  viability, T/C: 12.6%
[36]
  viability, T/C: 8.88%
